Laboratory results reported in patent US20050009005A1, “Methods of using quantitative lipid metabolome data” (Lipomics Technologies, Inc., priority 2001, published 2005).
Where two headings read alike, the source gives them in different places.

Tested on: de novo fatty acid synthesis
[1] = Adipose, CE, mean of treated mice
[2] = Adipose, FFA, mean of treated mice
[3] = Adipose, PL, mean of treated mice
[4] = Adipose, TAG, mean of treated mice
[5] = Heart, CE, mean of treated mice
[6] = Heart, FFA, mean of treated mice
[7] = Heart, PC, mean of treated mice
[8] = Heart, PS/I, mean of treated mice
[9] = Heart, TAG, mean of treated mice
[10] = Liver, CE, mean of treated mice

## CN(CCOc1ccc(CC2SC(=O)NC2=O)cc1)c1ccccn1 (centres unmarked) [rosiglitazone]
Adipose, CE, mean
  14:0: 3.8 percentage of total fatty acids within each lipid class
  16:0: 10.9 percentage of total fatty acids within each lipid class
  16:1n7: 7.1 percentage of total fatty acids within each lipid class
  18:0: 3.8 percentage of total fatty acids within each lipid class
  18:1n7: 1.3 percentage of total fatty acids within each lipid class
  18:1n9: 31.8 percentage of total fatty acids within each lipid class
  Saturates: 24.3 percentage of total fatty acids within each lipid class
  Total: 100.0 percentage of total fatty acids within each lipid class
  Total n7: 8.4 percentage of total fatty acids within each lipid class
  Total n9: 33.7 percentage of total fatty acids within each lipid class
[1]
  14:0: 131.5 nanomoles per gram
  16:0: 361.1 nanomoles per gram
  16:1n7: 248.8 nanomoles per gram
  18:0: 128.3 nanomoles per gram
  18:1n7: 44.3 nanomoles per gram
  18:1n9: 1135.7 nanomoles per gram
  Saturates: 833.5 nanomoles per gram
  Total n7: 293.1 nanomoles per gram
  Total n9: 1202.9 nanomoles per gram
  Total nMole of: 3405.8 nanomoles per gram
Adipose, FFA, mean
  14:0: 3.0 percentage of total fatty acids within each lipid class
  16:0: 16.7 percentage of total fatty acids within each lipid class
  16:1n7: 8.0 percentage of total fatty acids within each lipid class
  18:0: 3.6 percentage of total fatty acids within each lipid class
  18:1n7: 3.4 percentage of total fatty acids within each lipid class
  18:1n9: 30.4 percentage of total fatty acids within each lipid class
  Saturates: 23.9 percentage of total fatty acids within each lipid class
  Total: 100.0 percentage of total fatty acids within each lipid class
  Total n9: 30.8 percentage of total fatty acids within each lipid class
[2]
  14:0: 391.9 nanomoles per gram
  16:0: 2241.1 nanomoles per gram
  16:1n7: 1073.7 nanomoles per gram
  18:0: 487.0 nanomoles per gram
  18:1n7: 461.5 nanomoles per gram
  18:1n9: 4055.1 nanomoles per gram
  Saturates: 3203.6 nanomoles per gram
  Total n7: 1535.2 nanomoles per gram
  Total n9: 4117.3 nanomoles per gram
  Total nMole of: 13373.4 nanomoles per gram
Adipose, PL, mean
  14:0: 1.6 percentage of total fatty acids within each lipid class
  16:0: 18.8 percentage of total fatty acids within each lipid class
  16:1n7: 3.6 percentage of total fatty acids within each lipid class
  18:0: 13.7 percentage of total fatty acids within each lipid class
  18:1n7: 2.8 percentage of total fatty acids within each lipid class
  18:1n9: 18.0 percentage of total fatty acids within each lipid class
  Saturates: 36.3 percentage of total fatty acids within each lipid class
  Total: 100.0 percentage of total fatty acids within each lipid class
  Total n7: 6.5 percentage of total fatty acids within each lipid class
  Total n9: 19.2 percentage of total fatty acids within each lipid class
[3]
  14:0: 152.1 nanomoles per gram
  16:0: 1706.0 nanomoles per gram
  16:1n7: 338.8 nanomoles per gram
  18:0: 1240.0 nanomoles per gram
  18:1n7: 261.8 nanomoles per gram
  18:1n9: 1679.9 nanomoles per gram
  Saturates: 3281.6 nanomoles per gram
  Total n7: 600.6 nanomoles per gram
  Total n9: 1787.7 nanomoles per gram
  Total nMole of: 4559.5 nanomoles per gram
Adipose, TAG, mean
  14:0: 1.8 percentage of total fatty acids within each lipid class
  16:0: 22.5 percentage of total fatty acids within each lipid class
  16:1n7: 7.3 percentage of total fatty acids within each lipid class
  18:0: 1.5 percentage of total fatty acids within each lipid class
  18:1n7: 3.2 percentage of total fatty acids within each lipid class
  18:1n9: 30.5 percentage of total fatty acids within each lipid class
  Saturates: 26.2 percentage of total fatty acids within each lipid class
  Total: 100.0 percentage of total fatty acids within each lipid class
  Total n7: 10.5 percentage of total fatty acids within each lipid class
  Total n9: 30.8 percentage of total fatty acids within each lipid class
[4]
  14:0: 52712.2 nanomoles per gram
  16:0: 650079.8 nanomoles per gram
  16:1n7: 210006.6 nanomoles per gram
  18:0: 43888.4 nanomoles per gram
  18:1n7: 93310.6 nanomoles per gram
  18:1n9: 880178.1 nanomoles per gram
  Saturates: 755758.5 nanomoles per gram
  Total n7: 303317.2 nanomoles per gram
  Total n9: 891269.3 nanomoles per gram
  Total nMole of: 962282.9 nanomoles per gram
Heart, CE, mean
  14:0: 4.3 percentage of total fatty acids within each lipid class
  16:0: 14.6 percentage of total fatty acids within each lipid class
  16:1n7: 3.4 percentage of total fatty acids within each lipid class
  18:0: 6.4 percentage of total fatty acids within each lipid class
  18:1n7: 1.3 percentage of total fatty acids within each lipid class
  18:1n9: 25.5 percentage of total fatty acids within each lipid class
[5]
  14:0: 56.4 nanomoles per gram
  16:0: 198.8 nanomoles per gram
  16:1n7: 45.4 nanomoles per gram
  18:0: 89.0 nanomoles per gram
  18:1n7: 19.3 nanomoles per gram
  18:1n9: 370.9 nanomoles per gram
  Saturates: 379.2 nanomoles per gram
  Total n7: 64.8 nanomoles per gram
  Total n9: 383.4 nanomoles per gram
  Total nMole of: 1358.5 nanomoles per gram
Heart, CL, mean
  14:0: 0.2 percentage of total fatty acids within each lipid class
  16:0: 1.3 percentage of total fatty acids within each lipid class
  16:1n7: 2.0 percentage of total fatty acids within each lipid class
  18:0: 2.4 percentage of total fatty acids within each lipid class
  18:1n7: 3.0 percentage of total fatty acids within each lipid class
  18:1n9: 5.0 percentage of total fatty acids within each lipid class
  Saturates: 4.1 percentage of total fatty acids within each lipid class
  Total: 100.0 percentage of total fatty acids within each lipid class
  Total n7: 5.1 percentage of total fatty acids within each lipid class
  Total n9: 5.3 percentage of total fatty acids within each lipid class
Heart, FFA, mean
  14:0: 2.1 percentage of total fatty acids within each lipid class
  16:0: 22.6 percentage of total fatty acids within each lipid class
  16:1n7: 3.0 percentage of total fatty acids within each lipid class
  18:0: 8.3 percentage of total fatty acids within each lipid class
  18:1n7: 3.6 percentage of total fatty acids within each lipid class
  18:1n9: 18.7 percentage of total fatty acids within each lipid class
  Saturates: 33.8 percentage of total fatty acids within each lipid class
  Total: 100.0 percentage of total fatty acids within each lipid class
  Total n7: 6.6 percentage of total fatty acids within each lipid class
  Total n9: 19.4 percentage of total fatty acids within each lipid class
[6]
  14:0: 52.4 nanomoles per gram
  16:0: 560.7 nanomoles per gram
  16:1n7: 73.6 nanomoles per gram
  18:0: 206.9 nanomoles per gram
  18:1n7: 90.0 nanomoles per gram
  18:1n9: 466.4 nanomoles per gram
  Saturates: 839.0 nanomoles per gram
  Total n7: 163.6 nanomoles per gram
  Total n9: 483.8 nanomoles per gram
  Total nMole of: 2482.9 nanomoles per gram
Heart, PC, mean
  14:0: 0.2 percentage of total fatty acids within each lipid class
  16:0: 29.2 percentage of total fatty acids within each lipid class
  16:1n7: 1.0 percentage of total fatty acids within each lipid class
  18:0: 11.6 percentage of total fatty acids within each lipid class
  18:1n7: 4.0 percentage of total fatty acids within each lipid class
  18:1n9: 10.7 percentage of total fatty acids within each lipid class
  Saturates: 41.4 percentage of total fatty acids within each lipid class
  Total: 100.0 percentage of total fatty acids within each lipid class
  Total n7: 5.0 percentage of total fatty acids within each lipid class
  Total n9: 10.9 percentage of total fatty acids within each lipid class
[7]
  14:0: 68.3 nanomoles per gram
  16:0: 8497.6 nanomoles per gram
  16:1n7: 289.1 nanomoles per gram
  18:0: 3392.4 nanomoles per gram
  18:1n7: 1154.7 nanomoles per gram
  18:1n9: 3120.1 nanomoles per gram
  Saturates: 12059.6 nanomoles per gram
  Total n7: 1443.8 nanomoles per gram
  Total n9: 3184.2 nanomoles per gram
  Total nMole of: 14579.5 nanomoles per gram
Heart, PS/I, mean
  14:0: 0.3 percentage of total fatty acids within each lipid class
  16:0: 5.2 percentage of total fatty acids within each lipid class
  16:1n7: 0.4 percentage of total fatty acids within each lipid class
  18:0: 33.6 percentage of total fatty acids within each lipid class
  18:1n7: 1.4 percentage of total fatty acids within each lipid class
  18:1n9: 5.1 percentage of total fatty acids within each lipid class
  Saturates: 39.7 percentage of total fatty acids within each lipid class
  Total: 100.0 percentage of total fatty acids within each lipid class
  Total n7: 1.8 percentage of total fatty acids within each lipid class
  Total n9: 5.8 percentage of total fatty acids within each lipid class
[8]
  14:0: 25.3 nanomoles per gram
  16:0: 515.0 nanomoles per gram
  16:1n7: 36.4 nanomoles per gram
  18:0: 3334.5 nanomoles per gram
  18:1n7: 143.9 nanomoles per gram
  18:1n9: 504.6 nanomoles per gram
  Saturates: 3945.4 nanomoles per gram
  Total n7: 180.2 nanomoles per gram
  Total n9: 572.9 nanomoles per gram
  Total nMole of: 4967.1 nanomoles per gram
Heart, TAG, mean
  14:0: 3.0 percentage of total fatty acids within each lipid class
  16:0: 26.0 percentage of total fatty acids within each lipid class
  16:1n7: 4.9 percentage of total fatty acids within each lipid class
  18:0: 3.5 percentage of total fatty acids within each lipid class
  18:1n7: 3.2 percentage of total fatty acids within each lipid class
  18:1n9: 26.2 percentage of total fatty acids within each lipid class
[9]
  14:0: 160.8 nanomoles per gram
  16:0: 1597.3 nanomoles per gram
  16:1n7: 316.4 nanomoles per gram
  18:0: 173.5 nanomoles per gram
  18:1n7: 210.7 nanomoles per gram
  18:1n9: 1775.7 nanomoles per gram
  Saturates: 1993.9 nanomoles per gram
  Total n7: 527.1 nanomoles per gram
  Total n9: 1813.1 nanomoles per gram
  Total nMole of: 2014.7 nanomoles per gram
Liver, CE, mean
  14:0: 1.9 percentage of total fatty acids within each lipid class
  16:0: 48.0 percentage of total fatty acids within each lipid class
  16:1n7: 11.8 percentage of total fatty acids within each lipid class
  18:0: 3.5 percentage of total fatty acids within each lipid class
  18:1n7: 2.3 percentage of total fatty acids within each lipid class
  18:1n9: 19.9 percentage of total fatty acids within each lipid class
  Saturates: 54.6 percentage of total fatty acids within each lipid class
  Total: 100.0 percentage of total fatty acids within each lipid class
  Total n7: 14.1 percentage of total fatty acids within each lipid class
  Total n9: 20.5 percentage of total fatty acids within each lipid class
[10]
  14:0: 110.6 nanomoles per gram
  16:0: 2765.2 nanomoles per gram
  16:1n7: 678.5 nanomoles per gram
